The text below walks through data of the METLIN SMRT retention time set (Domingo-Almenara et al. 2019).

A short description of this data set: gradient 5% acetonitrile 3 min, to 50% in 2 min, to 85% in 15 min, held 3 min, 100 µL/min. Particulars: column: Zorbax Extend-C18 2.1 x 50 mm; eluents: water / acetonitrile, 0.1% formic acid. In outline: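 Pure standards were analyzed in mixtures of ~100 molecules using HPLC coupled to a quadrupole time-of-flight mass spectrometer, in both positive and negative ionization mode. Separation used a Zorbax Extend-C18 column (2.1 × 50 mm, 1.8 μm) at 100 μL/min, with water and acetonitrile each containing 0.1% formic acid. Dead and dwell volumes were 40 μL and 900 μL, and data were collected over 3 months. Retention time was read from computationally picked adduct peaks, each inspected manually.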
In turn, `O=C(Cn1cccc(-c2nc(-c3ccccc3)no2)c1=O)Nc1ccc(F)cc1F` yielded an RP-LC retention time of 864 s.
`COc1cccc(C(=O)Nc2nnc(SC)s2)c1` came in with an RP-LC retention time of 755 s.
Next, `Cc1ccc(NC(=O)C2CCN(S(C)(=O)=O)c3cc(Cl)ccc3O2)cc1` (centres undefined): 1010 s.
`C=Cc1ccc(CN2C(=O)N(c3cccc(F)c3)c3ncccc3S2(=O)=O)cc1` had an RP-LC retention time of 834 s.
Under `CN(C)C[C@@H]1CN(c2ccncn2)C[C@H]1NC(=O)c1ccc2ncccc2c1` stands 652 s.
Next, `CC(=O)Nc1onc(C)c1-c1ccc(C)c(S(=O)(=O)NCCc2ccc(S(N)(=O)=O)cc2)c1`: 663 s; `O=C1CC(c2ccco2)Cc2[nH]c(=O)c(C(=O)Nc3ccccc3C(F)(F)F)cc21` (centres undefined): 746 s; `Cc1oc(-c2[nH]ncc2C(=O)N2CCOCC2)cc1S(=O)(=O)NCC1CCCCC1`: 742 s.
For the compound `CCNC(=O)c1nnc(-c2ccc(S(=O)(=O)N3CCC(C)CC3)cc2)o1`, the RP-LC retention time was 875 s.
`CCCN1C(=O)c2cc(S(=O)(=O)N3CCCCC3CC)ccc2Oc2cccnc21` (centres undefined) came in with an RP-LC retention time of 1260 s.
Under `Nc1nc(Nc2ccc3c(c2)CC[C@@H](N2CCCC2)CC3)nn1-c1cc2c(nn1)-c1ccccc1CCC2` stands 760 s.
Next, `O=C(Nc1ccc2c(c1)OCCO2)N1CCCC(CN2CCOCC2)CC1` (centres undefined): 590 s; `COc1ccc(-c2nc(N3CCN(C4CCCCC4)CC3)c3ccccc3n2)cc1`: 589 s; `COCCOC(=O)c1c(C)oc2ccc(OC(=O)N(C)C)cc12`: 830 s.
Compound `O=C(Nc1ccccc1)c1cccn1Cc1noc(-c2ccccc2)n1` gave an RP-LC retention time of 1020 s.
Under `O=C1CC(c2noc(Cc3ccc(F)cc3)n2)CN1c1ccc(F)cc1` (centres undefined) stands 933 s.
Under `c1ccc(-n2nnnc2Oc2ccc(CNCCc3c[nH]c4ccccc34)cc2)cc1` stands 748 s; under `CCCN(CC1CCOC1)S(=O)(=O)c1ccc(OC)c(Cl)c1` (centres undefined), 936 s; under `COc1ccc(-c2nn(-c3ccccc3)cc2C#N)cc1[N+](=O)[O-]`, 1010 s.
Turning to `Cc1ccccc1CNS(=O)(=O)c1c(C)sc(C)c1-c1n[nH]c(C)c1C`, the RP-LC retention time is 1060 s.
For the compound `O=S(=O)(Nc1ccc2c(c1)OCO2)c1ccc2nncn2c1`, the RP-LC retention time stood at 648 s.
Under `Cc1ccccc1-n1ccn(Cc2nc(-c3cccc(Br)c3)no2)c(=O)c1=O` stands 931 s.
Under `OC[C@H]1OC(n2cnc3c(N[C@H]4CCC[C@@H]4O)ncnc32)[C@H](O)[C@@H]1O` (some centres undefined) stands 551 s; under `COc1ccc(CN2CCC([C@@H]3CNC[C@H]3CO)CC2)c(Cl)c1OC`, 551 s.
With `CCCn1nnc(NCc2ccc(-c3cccc(Cl)c3C)o2)n1`, the RP-LC retention time was 1130 s.
Under `O=C(NC1CCCC1)C1CCCCN1S(=O)(=O)c1ccc(Br)cc1` (centres undefined) stands 1040 s; under `CN(C)S(=O)(=O)c1ccc(-c2nnc(C(=O)NCc3ccc4c(c3)OCO4)o2)cc1`, 814 s.
Next, `COc1ccc(NS(=O)(=O)c2cccc(-c3nc(-c4ccccc4)no3)c2)cc1`: 1100 s; `COCC(C)(O)CNC(=O)C(=O)Nc1cccc(F)c1` (centres undefined): 675 s; `Cc1nc(-c2cnccn2)nc2c1CCC(=O)N2Cc1cccnc1`: 556 s.
Under `Cc1noc2nc(C)n(CC(=O)NCCc3ccccc3)c(=O)c12` stands 752 s; under `O=C(N[C@H]1C[C@@H]2C[C@H]1CN2C(=O)Cc1ccc(OC(F)(F)F)cc1)c1cccs1`, 832 s.
Compound `COc1cc(-c2noc(Cc3nnc(-c4ccc(F)cc4)o3)n2)cc(OC)c1OC` had an RP-LC retention time of 916 s.
Consider `CCN(CC)C(=O)c1c(C)sc2ccn(Cc3ccc(F)cc3)c(=O)c12`, for which the RP-LC retention time came to 828 s.
Consider `Cc1nnc(NC(=O)C2CCN(C(=O)c3ccccc3F)CC2)s1`, for which the RP-LC retention time worked out at 624 s.
Next, `O=S(=O)(NC1CCCCCC1)c1cc(-c2cc(C(F)(F)F)on2)cs1`: 1200 s.
Take `CCC(C)NC(=O)NC1CCN(C2=NS(=O)(=O)C(c3ccc(C)cc3)=C2C)CC1` (centres undefined): the RP-LC retention time came to 822 s.
Turning to `CCOc1ccc(C2C(C(=O)O)c3ccccc3C(=O)N2CCN2CCOCC2)cc1` (centres undefined), the RP-LC retention time amounted to 649 s.
Under `CCc1ccc(NC(=O)N2C[C@@H]3CN(S(=O)(=O)c4ccccc4)C[C@H](C2)O3)cc1` stands 851 s; under `CCn1cc(C)c(C(=O)O)c1CC(=O)NCCN1CCOCC1`, 582 s.
Under `COc1cc(C(=O)NC(C)COc2ccc(C(C)C)cc2)cc(OC)c1OC` (centres undefined) stands 965 s; under `COc1ccc(CN2CC[C@@H]3CN(S(C)(=O)=O)[C@@H]3C2)c(OC)c1`, 580 s; under `COc1cccc(N2C(=O)C3N=NN(Cc4nc(-c5ccccc5C)no4)C3C2=O)c1` (centres undefined), 976 s.
Under `CCOC(=O)c1cc(S(=O)(=O)N2CCCC2C(=O)Nc2ccc(C)c(F)c2)cn1C` (centres undefined) stands 988 s.
As to `CCCn1cc(CCNS(=O)(=O)c2ccccc2C)c2cccnc21`, the RP-LC retention time turned out to be 830 s.
Under `CC(C)OCCCNC(=O)c1c2c(cn(-c3ccccc3)c1=O)C(=O)CC(C)(C)C2` stands 878 s; under `O=C1NC2(CCN(C(=O)c3ccc(F)cc3)CC2)N=C1c1cccc(F)c1`, 635 s; under `Cc1ccccc1NC(=O)N1CCC(N2CCN(Cc3ccccc3)C2=O)CC1`, 794 s.
Next, `COc1ccc(-c2nn(CCCC(=O)NCCc3ccc(C)cc3)c(=O)c3noc(C)c23)cc1`: 950 s.
`Cc1noc(-c2nn(C)c3c2CN(C(=O)NC(C)(C)C)CC3)n1` displayed an RP-LC retention time of 680 s.
Next, `O=C(CCC(=O)N1CC2CCCN2c2ccccc21)NCCCN1CCCCC1` (centres undefined): 646 s; `Cc1nc(-c2csc(S(=O)(=O)N3CCC(C(=O)N(C)Cc4ccccc4)CC3)c2)no1`: 898 s.
Next, `O=C(NCc1cccc(Br)c1)C1CCCN(c2ccc(N3CCOCC3)nn2)C1` (centres undefined): 653 s.
Take `Cc1nc(-c2ccccc2)cc2nn(CC(=O)NCc3ccc(F)cc3F)c(=O)n12`: the RP-LC retention time was found to be 902 s.
Take `CC(=O)c1ccc(NC(=O)Cn2c(=O)nc(NC3CCCC3)c3ccccc32)cc1`: the RP-LC retention time is 635 s.
Next, `O=C(Cc1ccc(Cl)cc1)N1CCc2nc(-c3ccc(Cl)cc3)ncc2C1`: 1130 s; `CC1=C(c2ccc(Cl)cc2)S(=O)(=O)N=C1N1CCCN(C(=O)C(C)(C)C)CC1`: 900 s; `CC1(C)COCN1S(=O)(=O)c1ccc(C(=O)Nc2nnc(-c3cccs3)o2)cc1`: 750 s.
`O=C(c1cc(Cl)ccc1Cl)N(CCc1cccs1)C1CC1` gave an RP-LC retention time of 1070 s.
Next, `CC1CCN(CC2CCN(S(=O)(=O)c3ccccc3Cl)CC2)CC1`: 664 s; `CN(C)C1CCCN(Cc2c(F)cccc2Cl)C1=O` (centres undefined): 604 s.
Next, `CCOC(=O)C1CCCN(c2nc(-c3ccc(Cl)cc3)nc3ccccc23)C1` (centres undefined): 936 s.
For the compound `CC(C)(C)C1CCC(OCC(O)CN2CCN(CCO)CC2)CC1` (centres undefined), the RP-LC retention time was 581 s.
Next, `Cc1cccc(C(=O)N2CC(C)C(=O)Nc3ccccc32)c1` (centres undefined): 688 s; `Cc1ccc(C)c(CNC(=O)C2CCCN(c3cnn(C)c(=O)c3)C2)c1` (centres undefined): 723 s; `CCOC(=O)Cn1c(C2CC(=O)N(c3cc(OC)ccc3OC)C2)nc2ccccc21` (centres undefined): 725 s.
Under `COCCN1C(=O)c2ccccc2C(C(=O)NCCCOC(C)C)C12CCCCC2` (centres undefined) stands 756 s; under `Cc1cc(C)c(S(=O)(=O)N2CCC(c3cc4n(n3)CCCN(C)C4=O)CC2)cc1C`, 888 s; under `N#Cc1cccc(CN2C[C@@H]3C(=O)N(CCc4ccccc4)C(=O)[C@@H]3C2)c1`, 849 s.
Next, `Cc1nc(N2CCOCC2)c2c(C(=O)N3CCN(c4cccc(C)c4C)CC3)c(C)oc2n1`: 1000 s.
`Cc1nn(-c2ccc(N3CCOCC3)nn2)c(C)c1CCC(=O)NCCc1ccco1` returned an RP-LC retention time of 661 s.
With `Clc1ccc(Cl)c(-c2ccc(-c3nn4c(-c5ccco5)nnc4s3)o2)c1`, the RP-LC retention time was 1260 s.
`CN(C)c1ccc2c(c1)CN(C(=O)C1COc3ccccc3O1)CCO2` (centres undefined) came in with an RP-LC retention time of 679 s.
`Cc1ccc(-c2noc(-c3cccc(S(=O)(=O)NCCN4CCCCCC4)c3)n2)cc1` gave an RP-LC retention time of 794 s.
Next, `COc1ccc(C2C(C(=O)N3CCOCC3)=C(C)NC3=C2C(=O)CC(C)(C)C3)c(OC)c1` (centres undefined): 973 s; `Cn1c(=O)c2c(nc(N3CCCCC3)n2C)n(C)c1=O`: 794 s.
In turn, `COc1ccc(Cl)cc1NC(=O)NCCc1ccc(N(C)C)cc1` returned an RP-LC retention time of 637 s.
Under `COc1ccc(-c2cc(C(=O)Nc3ccccc3)nn2C2CCS(=O)(=O)C2)cc1` (centres undefined) stands 911 s.
Next, `O=C(Cn1c(-c2cccs2)cc2cc(F)ccc21)N1CCN(c2ccccn2)CC1`: 761 s.
